The source of these data is ChEMBL document CHEMBL1201862, “PubChem BioAssay data set” (2004).

Common to all, as to assay: growth of human tumour cells (NCI), 48 h
Assay [1] has as its system SN12C.
Assay [2] has as its system MDA-MB-435.
For assay [3], the system named is SF-268.
Assay [4] deals with BT-549.
For assay [5], the system named is UO-31.
Assay [6] relates to T47D.
Assay [7] relates to UACC-257.
Assay [8] has as its system OVCAR-3.
Assay [9] has as its system MOLT-4.
Assay [10] has as its system SF-539.
Assay [11] has as its system HOP-62.
In assay [12] the test system is OVCAR-5.
The subject of assay [13] is U-251.
The test system of assay [14] is MDA-N.
The subject of assay [15] is RXF 393.
Assay [16] deals with SNB-19.
For assay [17], the system named is SK-OV-3.
Assay [18] has as its system EKVX.
The subject of assay [19] is CAKI-1.
For assay [20], the system named is K562.

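Protocol summary: plate cells (96-well), add compound at 5 concentrations, incubate 48 h, interpolate endpoints linearly. GI50: concentration for 50% inhibition of growth.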 Active and inactive are the calls of the source. Cut-off read from the data, not from the text of the source: active = GI50 up to about 1.1 µM and inactive = higher.

In the case of `CC[C@H]1CN(C)[C@H]2Cc3c([nH]c4ccccc34)C(=O)C[C@H]1C2C(=O)OC` (stereo not given in full), the GI50 in assay [1], in assay [2], in [3], in [4], in [5] and in assay [6] was > 100 µM (inactive) each time. For the same molecule, the GI50 in [7] was > 100 µM (inactive); in assay [8], > 100 µM (inactive); in assay [9] it was 73.6 µM (inactive); in assay [10], > 100 µM (inactive); in [11], > 100 µM (inactive); in assay [12], > 100 µM (inactive). Further, the GI50 in assay [13], in [14], in assay [15], in assay [16], in assay [17] and in assay [18] was > 100 µM (inactive) throughout.

On to `NP(=O)(Oc1c2occc2cc2ccc(=O)oc12)N(CCCl)CCCl` (stereo not given), for which the GI50 is > 100 µM (inactive) in assay [1]; > 100 µM (inactive) in [2]; 58.2 µM (inactive) in assay [3]; > 100 µM (inactive) in [4]; > 100 µM (inactive) in assay [5]; > 100 µM (inactive) in [19]. Further, the GI50 in [6] was 48.5 µM (inactive); in assay [7] it was > 100 µM (inactive); in assay [8], > 100 µM (inactive); in [9], 28.8 µM (inactive); in assay [10], > 100 µM (inactive); in assay [11], > 100 µM (inactive). For the same molecule, the GI50 in assay [12] was > 100 µM (inactive); in assay [13] it was > 100 µM (inactive); in assay [14], > 100 µM (inactive); in assay [15] it was 0.0611 µM (active); in assay [16], > 100 µM (inactive); in [20] it was > 100 µM (inactive). Further, in assay [18], the GI50 was > 100 µM (inactive).

Turning to `Cc1nc2ccccc2[nH]/c1=N/Nc1ccccc1`, the GI50 in [1] was 26.4 µM (inactive); in assay [2], 14.8 µM (inactive); in [3], 27.6 µM (inactive); in [4] it was 20.7 µM (inactive); in assay [5], 18.8 µM (inactive); in [19] it was 27 µM (inactive). Moreover, the GI50 in assay [6] was 2.11 µM (inactive); in assay [7], 57.9 µM (inactive); in assay [8], 14 µM (inactive); in [10] it was 44.5 µM (inactive); in assay [11], 23.3 µM (inactive); in assay [12], 26.7 µM (inactive). Further, the GI50 in assay [13] was 48.3 µM (inactive); in [14], 19.5 µM (inactive); in assay [16], 45.1 µM (inactive); in [20], 17.9 µM (inactive); in [18], 4.17 µM (inactive).

Take `C=C(C)C1CC(=O)C(C)=C(O)C1` (stereo not given): the GI50 in assay [1], in [3], in assay [4], in assay [5], in [19] and in [6] was > 100 µM (inactive) throughout. Moreover, the GI50 in assay [7], in [9], in assay [10], in [11], in assay [12] and in assay [13] was > 100 µM (inactive) in each case. Further, the GI50 in [14], in [16], in [20], in assay [17] and in [18] was > 100 µM (inactive) throughout.

Regarding `Cc1oc2c(c1C)S(=O)(=O)C(C#N)=C(N(C)C)N2`, the GI50 in assay [1], in [2], in [3], in assay [4], in [5] and in assay [19] was > 100 µM (inactive) each time. For the same molecule, the GI50 in assay [6], in [7], in [8], in assay [9], in assay [10] and in assay [11] was > 100 µM (inactive) throughout. Also, the GI50 in [12], in [13], in assay [14], in assay [16], in assay [20] and in [17] was > 100 µM (inactive) each time. The GI50 in [18] was > 100 µM (inactive).

With `COc1ccc(Nc2nc3cc(C(F)(F)F)ccc3nc2C(=O)O)cc1OC`, the GI50 was 21.5 µM (inactive) in [1]; 33.8 µM (inactive) in [2]; 42.8 µM (inactive) in assay [3]; 26.3 µM (inactive) in [4]; 28.2 µM (inactive) in [5]; 27 µM (inactive) in [19]. The GI50 in assay [6] is 27.7 µM (inactive); in [7], 29.6 µM (inactive); in assay [8], 17.5 µM (inactive); in [9] it was 20.1 µM (inactive); in [10], 23.3 µM (inactive); in assay [11], 35 µM (inactive). Also, the GI50 is 58.9 µM (inactive) in [12]; 35.8 µM (inactive) in [13]; 23.3 µM (inactive) in assay [15]; 24 µM (inactive) in [16]; 28.6 µM (inactive) in [20]; 30.8 µM (inactive) in assay [18].

For `Nc1nc2ccc(Sc3ccc4nc(N)[nH]c(=O)c4c3)cc2c(=O)[nH]1`, the GI50 in assay [1], in assay [2], in assay [3], in [4], in [5] and in assay [19] was > 100 µM (inactive) throughout. For the same molecule, the GI50 in assay [6], in assay [7], in [8], in assay [9], in [10] and in assay [12] was > 100 µM (inactive) each time. Besides, the GI50 in [13] is 42.5 µM (inactive); in [15] it was > 100 µM (inactive); in [16], > 100 µM (inactive); in [20], > 100 µM (inactive); in assay [17], > 100 µM (inactive); in assay [18], > 100 µM (inactive).

In the case of `CC(C1CCCC1=O)C1CCCC1=O` (stereo not given), the GI50 in [1], in assay [3], in [4], in [5], in assay [19] and in [6] was > 100 µM (inactive) throughout. Also, the GI50 in [7], in assay [9], in assay [10], in [11], in [12] and in assay [13] was > 100 µM (inactive) each time. The GI50 in assay [14], in assay [15], in assay [16], in [20], in assay [17] and in assay [18] was > 100 µM (inactive) in each case.

As for `CCCNc1[nH]c(C(=O)c2ccccc2)c(N)c1C(=S)Nc1ccccc1`, the GI50 in [1], in assay [2], in [3], in [4], in assay [5] and in assay [19] was > 100 µM (inactive) each time. For the same molecule, the GI50 in [6], in assay [7], in [8], in [9], in assay [10] and in assay [11] was > 100 µM (inactive) throughout. Further, the GI50 in assay [12], in assay [13], in assay [14], in assay [16], in assay [20] and in [17] was > 100 µM (inactive) throughout. For the same molecule, the GI50 in [18] is > 100 µM (inactive).

Turning to `CC(=O)O[C@@H]1[C@H]2O[C@H]2[C@H]2O[C@@]2(COC(=O)c2ccccc2)[C@H]1OC(C)=O`, the GI50 in assay [1] is > 100 µM (inactive); in assay [2], > 100 µM (inactive); in assay [3] it was > 100 µM (inactive); in assay [4], > 100 µM (inactive); in assay [5] it was > 100 µM (inactive); in assay [19], 99.1 µM (inactive). For the same molecule, the GI50 in [6] is > 100 µM (inactive); in assay [7], > 100 µM (inactive); in assay [8], > 100 µM (inactive); in [9] it was 32.1 µM (inactive); in assay [10], > 100 µM (inactive); in [12], > 100 µM (inactive). For the same molecule, the GI50 in [13], in [14], in assay [16], in [20], in [17] and in [18] was > 100 µM (inactive) each time.

Consider `CCOc1nc2sc3c(c2c(=O)n1CCSSCCn1c(OCC)nc2sc4c(c2c1=O)CCCC4)CCCC3`, for which the GI50 in [1], in assay [2], in [3], in [4], in assay [5] and in assay [19] was > 100 µM (inactive) throughout. In addition, the GI50 in [6], in assay [7], in assay [8], in assay [9], in [10] and in assay [11] was > 100 µM (inactive) throughout. The GI50 in [12], in assay [13], in [14], in assay [16], in assay [20] and in assay [17] was > 100 µM (inactive) in each case. Also, the GI50 in assay [18] is > 100 µM (inactive).
